Patent US4599352A, “Antineoplastic platinum (IV) complexes and compositions” (priority 1984, dated 1986)

Columns and labels:
[1] = system: IP-Implanted L1210 Leukemia; test: Dose-response against IP-implanted L1210 leukemia, IP treatment Days 1, 5 and 9, 30-day test (Table 2); type: in vivo, CD2Fl male mice
Method: (§1) Biological properties of the compounds of the present invention were determined following the protocol described in Cancer Chemotherapy Reports, Vol. 3, No. 3, 1972 which report is incorporated herein by reference.
(§2) This experiment (A8-00005 3LE31) was conducted at the Southern Research Institute, Birmingham, Ala. under the supervision of Dr. Daniel Griswold. The protocols were the same as those published previously (Geran et al., Cancer Chemotherapy Reports 3: No. 2, 1972 [Attachment 11]). 10^5 cells were implanted intraperitoneally in CD2Fl male mice on Day 0. Drug treatments were given intraperitoneally as single injections at the doses indicated on Days 1, 5 and 9 after tumor implantation. The diluent was saline except for NSC-271674 where 5% sodium bicarbonate was used. All drugs were prepared fresh on the day of injection, and all were administered in solution. Median survival times for both control and drug-treated mice were determined and expressed as a percentage (% T/C). Body weights were determined on Day 5 and expressed as a weight difference (body weight of the drug-treated animals minus that of the control animals in grams) (T-C). The diluent control animals lived a median of 8.4 days and gained 1.9 grams by Day 5 in this experiment. All animals, including Day 30 survivors, were used in the calculation of median survival times. The log10 change in tumor burden refers to the net log change in viable tumor cell population at the end of therapy (Rx) as compared to the start of therapy; e.g., a […] means that there was a […] and a 3 log change means there was a 1000-fold increase in tumor burden at the end of therapy. The tumor burden at the start of therapy was about 6.1×10^5 cells in this experiment.

[2] = system: IP L1210; test: Activity against IP-implanted L1210 leukemia sensitive to cisplatin, 30 day test (Table 3); type: in vivo, Female CD2Fl mice
Method: as §1
(§3) Other known mechanisms of resistance for other classes of agents, such as gene amplification or target enzyme change or amplication, also need to be explored. The experiments summarized in Table 3 were conducted at the same time against both sublines using the same drug preparations. […] These experiments were repeated in a second laboratory as documented in Table 4. However, in these experiments the animals were held for 60 rather than 30 days to evaluate whether or not long-term survivors are produced after drug treatment in a more challenging setting.
as §2
These experiments (A8-00008 3LE31 and A8-00001 3DP31) were conducted concurrently at the Southern Research Institute, Birmingham, Ala. under the supervision of Dr. Daniel Griswold. See Table 4 for experimental details. The diluent control animals bearing L1210 leukemia lived a median of 8.6 days and gained 1.3 grams by Day 5. […] Female CD2Fl mice were used for these experiments.

[3] = system: IP L1210; test: Activity against IP-implanted L1210 leukemia sensitive to cisplatin, 60 day test (Table 4); type: in vivo, Female CD2Fl mice
Method: as §1, §3, §2
(§4) These experiments (23-00081 3LE31 and 23-00003 3DP3l) were conducted concurrently at the Mason Research Institute, Worcester, MA under the supervision of Dr. William Cobb. See Table 4 for experimental details. The diluent control animals bearing L1210 leukemia lived a median of 8.3 days and gained 1.6 grams by Day 5. […] Female CD2Fl mice were used for these experiments.

[4] = system: IP L1210/Cisplatin; test: Activity against IP-implanted L1210/Cisplatin leukemia resistant to cisplatin, 60 day test (Table 4); type: in vivo, Female CD2Fl mice
Method: as §1
Other known mechanisms of resistance for other classes of agents, such as gene amplification or target enzyme change or amplication, also need to be explored. The experiments summarized in Table 3 were conducted at the same time against both sublines using the same drug preparations. […] These experiments were repeated in a second laboratory as documented in Table 4. However, in these experiments the animals were held for 60 rather than 30 days to evaluate whether or not long-term survivors are produced after drug treatment in a more challenging setting. […]
as §4

## Tetrachloro-cis-1,2-cyclohexanediamine platinum (IV)
[1]; 1 mg/kg/dose IP
  30-Day Survivors/Total: 0/6
  Approx. Log10 Change in Tumor Burden at End of Rx: ~2.8 log10
  Body Weight Difference: -0.8 Grams
  Median % T/C: 128%
[1]; 2 mg/kg/dose IP
  30-Day Survivors/Total: 0/6
  Approx. Log10 Change in Tumor Burden at End of Rx: ~2.6 log10
  Body Weight Difference: -1.3 Grams
  Median % T/C: 140%
[1]; 4 mg/kg/dose IP
  30-Day Survivors/Total: 0/6
  Approx. Log10 Change in Tumor Burden at End of Rx: ~2.4 log10
  Body Weight Difference: -1.1 Grams
  Median % T/C: 152%
[1]; 8 mg/kg/dose IP
  30-Day Survivors/Total: 0/6
  Approx. Log10 Change in Tumor Burden at End of Rx: ~-0.7 log10
  Body Weight Difference: -1.8 Grams
  Median % T/C: 205%
[1]; 16 mg/kg/dose IP
  30-Day Survivors/Total: 2/6
  Approx. Log10 Change in Tumor Burden at End of Rx: ~-5.7 log10
  Body Weight Difference: -3.6 Grams
  Median % T/C: 333%
[1]; 16 mg/kg/dose IP, listed as cis
  Body Weight Difference: less than -4 Grams
[1]; day 1, 5 and 9 schedule
  Optimal dose (dose producing best therapeutic response): 16 mg/kg/injection
[2]; 1 mg/kg/dose
  30 Day Survivors/Total: 0/6
  Approx. Log10 Change in Tumor Burden at End of RX: ~2.8 log10
  Median % T/C: 125%
[2]; 2 mg/kg/dose
  30 Day Survivors/Total: 0/6
  Approx. Log10 Change in Tumor Burden at End of RX: ~2.6 log10
  Median % T/C: 139%
[2]; 4 mg/kg/dose
  30 Day Survivors/Total: 0/6
  Approx. Log10 Change in Tumor Burden at End of RX: ~2.4 log10
  Median % T/C: 148%
[2]; 8 mg/kg/dose
  30 Day Survivors/Total: 2/6
  Approx. Log10 Change in Tumor Burden at End of RX: ~-5.9 log10
  Median % T/C: 325%
[2]; 16 mg/kg/dose
  30 Day Survivors/Total: 1/6
  Approx. Log10 Change in Tumor Burden at End of RX: ~-5.7 log10
  Median % T/C: 267%
[3]; 2 mg/kg/dose
  60 Day Survivors/Total: 0/10
  Body Weight Difference: -0.9 Grams
  Median % T/C: 143%
[3]; 4 mg/kg/dose
  60 Day Survivors/Total: 2/10
  Body Weight Difference: -0.9 Grams
  Median % T/C: 250%
[3]; 8 mg/kg/dose
  60 Day Survivors/Total: 2/10
  Median % T/C: 313%
[3]; 16 mg/kg/dose
  60 Day Survivors/Total: 0/10
  Body Weight Difference: -5.6 Grams
  Median % T/C: 98%
[3]; 32 mg/kg/dose
  60 Day Survivors/Total: 0/10
  Body Weight Difference: -5.6 Grams
  Median % T/C: Toxic
[4]; 2 mg/kg/dose
  60 Day Survivors/Total: 0/10
  Body Weight Difference: -0.3 Grams
  Median % T/C: 121%
[4]; 4 mg/kg/dose
  60 Day Survivors/Total: 0/10
  Body Weight Difference: 0.0 Grams
  Median % T/C: 130%
[4]; 8 mg/kg/dose
  60 Day Survivors/Total: 1/10
  Body Weight Difference: -2.7 Grams
  Median % T/C: 191%
[4]; 16 mg/kg/dose
  60 Day Survivors/Total: 0/10
  Body Weight Difference: -5.4 Grams
  Median % T/C: Toxic
[4]; 32 mg/kg/dose
  60 Day Survivors/Total: 0/10
  Body Weight Difference: -5.1 Grams
  Median % T/C: Toxic
[4]; L1210/cisplatin, tolerated doses
  60-day (long term) survivors: only one long term survivor
